The values that follow come from patent US20230277486A1, “COMPOSITIONS FOR THE TREATMENT OF NON-ARTICULAR CARTILAGE-[…] CONDITIONS” (priority 2019, published 2023).

What all share (format): cell-based
Test [1] deals with Primary human osteoblasts. As to the kind of experiment: qPCR gene expression in osteoblast cultures exposed to PCA. On the procedure:
(§1) Cells: Primary human osteoblasts were obtained from Cell Applications, San Diego, Calif.
(§2) Cell culture: Osteoblasts were expanded in culture using the protocol provided by Cell Applications. Human Osteoblast Basal Media was supplemented with Human Osteoblast Growth Supplement (Cell Applications) containing 0.15 g/L calcium. Human Osteoblast Differentiation Media was purchased from Cell Applications, containing 0.20 g/L calcium.
(§3) Treatment: Osteoblasts were cultured in Human Osteoblast Basal Media and exposed to Protocatechuic acid (PCA) for up to 12 days at concentrations ranging from 1 μmolar to 100 μM. Osteoblasts were cultured without any PCA as negative control. Osteoblasts were cultured without any PCA in osteogenic media (Human Osteoblast Differentiation Media) as positive control (osteogenic media induces osteogenesis in osteoblasts). Each experiment was conducted in triplicate. Media were changed every 3 days.
Gene expression: Pro-osteogenic and anti-osteogenic gene expression was measured using qPCR on mRNA extracted from osteoblast cultures. Gene expression was computed as fold-change relative to control group (osteoblasts cultured without any PCA).
(In qPCR the cycle at which signal appears reflects the starting amount.)

In test [2] the test system is Primary human osteoblasts. As to the kind of experiment: Calcium deposition in osteoblast cultures, Alizarin red stain. Conditions: PCA 1 μM to 100 μM, 12 days of culture. On the procedure:
as §1, §2, §3
Calcium deposition: Osteoblast cultures were tested for calcium deposition using Alizarin red stain.

Test [3] concerns Primary human mesenchymal stem cells (MSC). As to the kind of experiment: qPCR osteogenic gene expression in MSC cultures exposed to PCA. To be noted: three cell lines, PCA 200 μM to 2000 μM, 14 or 21 days. On the procedure:
(§4) Cells: Primary human mesenchymal stem cells (MSC) were obtained from RoosterBio Inc., Frederick, Md.; ATCC, Manassas, Va.; and Cell Applications, San Diego, Calif.
(§5) Cell culture: MSC were expanded in culture, using the protocol provided by the respective suppliers, before being subjected to the experimental conditions.
(§6) Treatment: MSC were cultured in supplier-provided culture media and exposed to Protocatechuic acid (PCA) for 14 or 21 days at concentrations ranging from 200 μM to 2000 μM (2 mM). MSC were cultured without any PCA as negative control. To serve as positive control, MSC were cultured without any PCA in osteogenic media (Human Osteoblast Differentiation Media, Cell Applications, Catalog number: 417D-250). Osteogenic media is commonly used to induce osteogenesis. Each experiment was conducted in triplicate. Media was changed twice a week.
Gene expression: Osteogenic gene expression was measured using qPCR on mRNA extracted from MSC cultures. Gene expression was computed as fold-change relative to the control group (MSC cultured without any PCA). MSC cultured in osteogenic media was used as positive control as this protocol is commonly used to induce osteogenesis.

Test [4] shares this test system. As to the kind of experiment: Calcium deposition in MSC cultures, Alizarin red stain at 21 days. Conditions: three cell lines, PCA 200 μM to 2000 μM, FIG. 8. On the procedure:
as §4, §5, §6
Calcium deposition: MSC cultures were tested for calcium deposition using Alizarin red stain at 21 days.

Consider `O=C(O)c1ccc(O)c(O)c1` [PCA, protocatechuic acid], for which, in test [1] (PCA 1 μM to 100 μM, FIG. 2), the “IL-1β gene expression (anti-osteogenic gene)” value is “increasing”, the “IL-6 gene expression (anti-osteogenic gene)” value is on record as “increasing”, the “MMP-1 gene expression (anti-osteogenic gene)” value is on record as “suppressing” and the “TNF-α gene expression (anti-osteogenic gene)” value was “suppressing”. For the same compound, the “BMP-6 expression, dose dependence” value in test [1] (PCA 1 μM to 100 μM, FIG. 3) is listed as “dose-dependent effect”. Besides, in test [1] (PCA 1 μM to 100 μM, up to 12 days, fold-change relative to control without PCA, FIG. 1), the “osteogenic gene expression (IBSP, SPP1, TNAP, RunX2)” value is “dose-dependent effect on all osteogenic genes tested”. In addition, the “expression of osteogenic genes versus positive control (osteogenic media)” value in test [1] (PCA 100 μmolar (highest dose)) is “even higher than that measured in the positive control”. Also, the “BMP-6 expression relative to negative control” value in test [1] (PCA 100 μmolar, FIG. 3) was “greater than 2 fold”. For the same compound, the calcium deposition entry in test [2] is “did not increase deposition of calcium by detectable amounts”. Besides, in test [3] (FIG. 5), the RUNX2 expression entry is recorded as “increased RUNX2 at most dose levels” and the “RUNX2 expression versus positive control (osteogenic media)” value is recorded as “mostly higher than the positive control”. In test [3] (FIG. 6), the “expression of alkaline phosphatase (TNAP)” value was “increased the expression of alkaline phosphatase relative to negative control but not greater than the osteogenic conditions”. The “expression of bone sialoprotein (IBSP)” value in test [3] (FIG. 7) is recorded as “did not increase”. For the same compound, in test [3] (versus positive control (osteogenic media), FIG. 4), the “expression of osteopontin (SPP1)” value is reported as “even higher than that measured in the positive control”. In addition, in test [4], the deposition of calcium entry is “visibly increased the deposition of calcium in one of the three cell lines”.
